Experiments:
PAI-1 = test: IHC of lung tissue of bleo-treated mice: PAI-1; format: in vivo, mouse; settings: bleomycin-treated mice, 24-72 h
Procedure: (§1) For immunohistochemical (IHC) analysis, lungs were inflated at constant pressure of 20 cm H2O, removed and fixed overnight in 2% paraformaldehyde in PBS. Tissue was dehydrated by passage through a standard alcohol series and was embedded in paraffin. 5 μm sections were deparaffinized with xylene followed by incubation with 100% and 95% alcohol. After 10 min of antigen retrieval, the slides were incubated with H2O2 for 30 min to quench endogenous peroxidase. Slides were incubated overnight with the respective antibodies in PBS containing 0.1% Tween 20 and further processed using Lab vision kit (Freemont Calif.).
(§2) An IHC study was conducted to analyze lung tissue for expression p53, uPA, uPAR, PAI-1 and cleaved caspase 3 (Table 2). […] These IHC observations were confirmed by Western blotting (see Example II and FIG. 5).

[1] = tested on: bleo-induced lung injury in the mouse; test: Lung desmosine (elastin) after bleo-induced lung injury; format: in vivo; settings: 50 μg Bleo intranasally; 10 mM peptide in 0.1 ml osmotic pump i.p. one day later; lungs after 21 days
Procedure: (§3) FIGS. 10A and 10B are graphs showing the effect of PP-1 on fibrosis following bleo-induced lung injury in the mouse. […] 24 h after bleo, 0.1 ml osmotic pump filled with 10 mM PP-1 (designated “Bleo+PP” in Figures) or CP1 control scrambled peptide (“Bleo+CP1”) were implanted intraperitoneally. Lungs were harvested after 21 days, homogenized and the homogenates were subjected to the analysis of hydroxyproline or desmosine levels.
(§4) Lungs were harvested after 21 days, homogenized and the homogenates were subjected to the analysis of hydroxyproline as above (FIG. 10A) or desmosine (FIG. 10B). The effect of PP-1 on fibrosis in bleo-induced mouse lung injury was evaluated. Mice were treated with saline or 50 μg Bleo intranasally were implanted one day later with, 0.1 ml osmotic pumps i.p. The pumps were filled with either 10 mM (2.92 mg/100 μl) PP-1 (“Bleo+PP-1”) or control scrambled peptide CP-1 (“Bleo+CP-1”).

[2] = tested on: bleo-induced collagen deposition in mouse lung; test: Mason's Trichrome stain for collagen of lung sections of bleo-treated mice; format: in vivo; settings: for Collagen content in lung section: bleo-treated animals, peptide one day after bleo, day 21, trichrome stain
Procedure: FIG. 13 is a set of photomicrographs showing that PP-1 prevents bleo-induced collagen deposition in mouse lung. Mice were treated with bleo (50 μg/ml) by intranasal instillation followed by treatment with PP-1 (10 nM) or control peptide CP-1 on day 2. Lungs were excised on day 21, inflated and fixed in formalin, a sectioned into […] sections which were subjected to Mason's Trichrome stain (a three-color stain that stains cell nuclei red, collagen green or blue, and cytoplasm red). Blue staining indicates collagen deposition in bleo-treated lung sections.
(§5) FIGS. 14A & 14B is a series of photomicrographs of lung epithelial tissue stained with Mason's trichrome stain for collagen (FIG. 10A) and by TUNEL staining for apoptosis (FIG. 10B). Bleo-treated animals were instilled with either PP-1, PP-2 or control peptide CP-1 one day after bleo treatment, The lungs were removed on day 21, subjected to the staining procedures and examined for collagen accumulation or apoptosis.
Collagen deposition in mouse lung after bleo treatment was investigated. Mice were treated with bleo (50 μg/ml) by intranasal instillation followed by treatment with PP-1 (10 nM) (designated as PP in Figure) or control peptide CP-1 (designated CP in FIG. 13) on day 2. Lungs were excised on day 21, inflated and fixed in formalin, a sectioned into […] sections which were subjected to Mason's Trichrome stain (a three-color stain that stains cell nuclei red, collagen green or blue, and cytoplasm red).
(§6) A comparison was made of normal and bleo-treated lung, and the effect of PP-1 and PP-2 on the bleo-treated lungs were examined. Animals were treated with bleo and peptides as above. Lung tissue was removed at day 21 and stained with Mason's trichrome stain for collagen and subjected to TUNEL staining for apoptosis.

p53 = test: IHC of lung tissue of bleo-treated mice: p53; format: in vivo, mouse; settings: bleomycin-treated mice, 24-72 h
Procedure: as §1, §2

[3] = tested on: bleomycin-induced lung epithelial cell (LEC) apoptosis; test: TUNEL staining for apoptosis of lung sections of bleo-treated mice; format: in vivo, mouse; settings: for Lung epithelial cell apoptosis: appearance of cells / Lung epithelial cell apoptosis: cell death: bleo-treated animals, peptide one day after bleo; for Lung epithelial cell apoptosis: appearance of cells: lung tissue day 21; for Lung epithelial cell apoptosis: cell death: lung tissue day 21, TUNEL
Procedure: The mice were sacrificed 24, 48 and 72 h later. Lungs were excised, inflated and fixed in formalin, and […] sections were analyzed by TUNEL staining. […]

bleo-treated lung = test: Histology of lung tissue of bleo-treated animals, pathological observations; format: in vivo, mouse; settings: conclusion from Table 3, day 21
Excerpt: as §5, §6

[4] = tested on: bleo-induced lung injury in the mouse; test: Lung hydroxyproline (collagen deposition) after bleo-induced lung injury; format: in vivo; settings: for bleomycin-induced collagen deposition (hPro content, % of control): 10 mM peptide i.p. osmotic pump 7 days after bleo
Procedure: as §3
Anesthetized mice received intranasal bleomycin HCl solution containing 40 μg/50μl in sterile saline solution. After 24 h, 7 days or 14 days 10 mM PP-1 (“Bleo+PP-1”) or control peptide (Bleo+CP-1) were given ip using a 0.1 ml osmotic pump. Mice were sacrificed and lungs excised 21 days later. Lung homogenates were analyzed for hydroxyproline. Results are expressed a % of control hydroxyproline concentration.
Anesthetized mice received intranasal bleomycin HCl solution containing 40 μg/50 μl in sterile saline solution. After day 7, 10 mM peptide PP-2 (“Bleo+PP-2”) or control peptide (“Bleo+CP-2) were given intraperitoneally using a 0.1 ml osmotic pump. Lungs were excised after 21 days, lungs were homogenized and the homogenates were analyzed for hydroxyproline. Results are expressed a % of control hydroxyproline concentration.
The hPro content of the whole mouse lungs tissues were measured using the technique of Woessner J F, 1961, Arch. Biochem. Biophys. 93:440-7). Lung tissue from each animal was homogenized in 1.0 ml of extraction buffer. One ml 12N HCl was added, and the samples were hydrolyzed at 110° C. for 24 h. After cooling, 5 μl of the samples were mixed with 5 μl of citrate-acetate buffer (5% citric acid, 1.2% glacial acetic acid, 7.25% sodium acetate and 3.4% sodium hydroxide) and 100 μl of chloramine-T solution (1.4% chloramine-T, 10% N-propanol, and 80% citrate acetate buffer) in 96 well plates. The mixture was incubated for 20 min at room temperature. A total of 100 μl of Ehrlich's solution (2.5 g p-dimethylaminobenzaldehyde added to 9.3 ml of n-propanol and 3.9 ml of 70% perchloric acid) was added to each well and the plates incubated at 65° C. for 18 min. The absorbance of each sample was measured at 550 nm. Standard curves were generated for each experiment using a known concentration of reagent hPro. Results were expressed as % changes in hPro content (with total hPro content of saline-treated control mouse lungs considered 100%).
as §4

cleaved PARP = test: IHC of lung sections of bleo-treated mice: cleaved PARP; format: in vivo, mouse; settings: peptide 4.5 μM i.p. days 1 and 2, bleomycin 40 μg/50 μl intranasal day 2; up to 72 h
Procedure: On day 2 mice were treated with bleomycin (40 μg/50μl) by intranasal instillation. Mice were sacrificed 24, 48 and 72 h after later, lungs were excised, inflated and fixed in formalin, and […] sections were analyzed by immunohistochemistry (IHC) using an antibody specific for cleaved PARP.
as §1

[5] = tested on: uPAR-dependent adhesion of cells to vitronectin; settings: Wei Y et al., 1996, Science 273; cited from earlier work
[6] = molecular target: integrin-caveolin-uPAR complexes (Homo sapiens, UniProt Q03405); settings: at a concentration that blocked adhesion; Wei Y et al., 1996; cited from earlier work
[7] = bleomycin 40 μg/50 μl intranasal, lungs after 21 days

integrin-caveolin-uPAR complexes, sequence (Q03405 23-305, one chain of several): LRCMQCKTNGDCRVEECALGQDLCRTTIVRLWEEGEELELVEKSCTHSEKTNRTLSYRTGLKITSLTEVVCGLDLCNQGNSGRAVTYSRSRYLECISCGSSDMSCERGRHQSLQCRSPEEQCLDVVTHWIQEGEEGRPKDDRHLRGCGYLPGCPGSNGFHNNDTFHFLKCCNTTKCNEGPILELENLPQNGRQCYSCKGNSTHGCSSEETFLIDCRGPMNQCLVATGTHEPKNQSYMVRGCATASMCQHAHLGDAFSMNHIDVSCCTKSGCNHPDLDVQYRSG

WGIDKAFFTTSTVTYKWFRY [CP-1, scrambled control peptide for PP-1 with the same amino acid composition]
PAI-1 expression in lung tissue (IHC) (PAI-1): but not control peptide (CP-1) reduced this PAI-1 expression | lung desmosine levels [1]: did not have this effect | Collagen content in lung section [2]: Increased | p53 expression in lung tissue (IHC) (p53): but not control peptide CP-1, blocked bleomycin induced p53 expression | Lung epithelial cell apoptosis: appearance of cells [3]: Fibrotic cells, | Lung epithelial cell apoptosis: cell death [3]: 90% cell | apoptosis (TUNEL positive cells) ([3]; peptide 4.5 μM i.p. on day 1 and 2, bleomycin 40 μg/50 μl intranasal on day 2, 24, 48 and 72 h): but not with control peptide, reversed bleomycin-induced apoptosis | effect on bleo-induced lung injury / Bleo-damaged lung tissue (bleo-treated lung): did not have any discernible effect on Bleo-damaged lung tissue | lung hydroxyproline levels ([4]; 50 μg Bleo intranasally, 10 mM peptide in 0.1 ml osmotic pump i.p. one day later, lungs after 21 days): did not have this effect | bleomycin-induced collagen deposition (hydroxyproline, % of control) ([4]; bleomycin 40 μg/50 μl intranasal, 10 mM peptide i.p. osmotic pump after 24 h, 7 days or 14 days, lungs 21 days): but not control peptide CP-1 reversed bleomycin-induced increases in collagen deposition | cleavage (degradation) of PARP in lung (cleaved PARP): but not control peptide CP-1 reversed such PARP degradation

NYHYLESSMTALYTLGH [PP-2, initially disclosed as scrambled control for Peptide 25 of Wei Y et al]
uPAR-dependent adhesion of cells to vitronectin [5]: but not its control (which is PP-2 here) inhibited uPAR-dependent adhesion of cells to vitronectin | Collagen content in lung section [2]: Minimal | development of bleo-induced lung fibrosis ([2]; conclusion from Table 3, day 21): prevented the development of bleo-induced lung fibrosis | Lung epithelial cell apoptosis: appearance of cells [3]: No fibrosis, | Lung epithelial cell apoptosis: cell death [3]: 11% cell | effect on bleo-induced lung injury / Bleo-damaged lung tissue (bleo-treated lung): protected LECs from bleo-induced lung injury | disruption of integrin-caveolin-uPAR complexes [6]: but not its control, disrupted integrin-caveolin-uPAR complexes | bleomycin-induced collagen deposition (hPro content, % of control) [4, 7]: significantly suppressed collagen deposition

AESTYHHLSLGYMYTLN [CP-2]
uPAR-dependent adhesion of cells to vitronectin [5]: inhibited uPAR-dependent adhesion of cells to vitronectin | Collagen content in lung section [2]: Increased | Lung epithelial cell apoptosis: appearance of cells [3]: Fibrotic cells, | Lung epithelial cell apoptosis: cell death [3]: 90% cell | effect on bleo-induced lung injury / Bleo-damaged lung tissue (bleo-treated lung): did not have any discernible effect on Bleo-damaged lung tissue | disruption of integrin-caveolin-uPAR complexes [6]: disrupted integrin-caveolin-uPAR complexes | bleomycin-induced collagen deposition (hPro content, % of control) [4, 7]: but not its control peptide CP-2 reversed bleomycin induced increases in collagen deposition

— US8697840B2, “Peptide inhibition of lung epithelial apoptosis and pulmonary fibrosis” (Board of Regents, The University of Texas System, priority 2008, dated 2014)
